From patent publication US7157468B2, “Pyrazole derivatives” (Pfizer Inc., priority 2002, dated 2007)
pIC50: −log10 of the molar value.

Molecular target: T1, HIV-1 reverse transcriptase (Human immunodeficiency virus type 1 group M subtype B, UniProt P04585)
T1 construct: purified recombinant HIV-1 reverse transcriptase (RT, EC, 2.7.7.49); made in house; host or cells: Escherichia coli
Assay: Inhibition of HIV-1 Reverse Transcriptase Enzyme
Format: biochemical
Details: purified recombinant HIV-1 RT expressed in Escherichia Coli; [3H]-SPA or [3H]-flashplate enzyme assay; 5% final DMSO
Excerpt: The activity of the compounds of the invention as reverse transcriptase inhibitors may be measured using the following assay.
Inhibition of HIV-1 Reverse Transcriptase Enzyme
Using purified recombinant HIV-1 reverse transcriptase (RT, EC, 2.7.7.49) obtained by expression in Escherichia Coli, a 96-well plate assay system is established for assaying a large number of samples using either the Poly(rA)-oligo(dT) Reverse Transcriptase [3H]-SPA enzyme assay system (Amersham NK9020) or the [3H]-flashplate enzyme assay system (NEN-SMP 103) and following the manufacturer's recommendations. The compounds are dissolved in 100% DMSO and diluted with the appropriate buffer to a 5% final DMSO concentration. The inhibitory activity is expressed in percent inhibition relative to DMSO control.

`Cc1n[nH]c(CC(=O)N2CCc3ccccc3C2)c1Oc1cc(Cl)cc(Cl)c1` [Example 8, 2-[4-(3,5-Dichloro-phenoxy)-5-methyl-2H-pyrazol-3-yl]-1-(3,4-dihydro-1H-isoquinolin-2-yl)-ethanone] showed a pIC50 of 8.00.
Compound `Cc1n[nH]c(CC(=O)N2CCc3ccccc3C2)c1Oc1cc(Cl)cc(C#N)c1` [Example 17] has a pIC50 of 7.19.
